Experimental data as given in PMC6150245 (Molecules : A Journal of Synthetic Chemistry and Natural …, 2017).
Values after ≈ are worked out from the molar mass of the structure shown. “Also recorded” adds a separate entry of the source. Like-named read-outs stand apart in the source and are kept apart here.

Columns and labels:
E. coli ATCC25922 = assay: MIC, microdilution in MH broth (initial screening); assay type: cell-based, Escherichia coli; conditions: 24 h, 37 °C, resazurin, triplicate
Method: (§1) The minimum inhibitory concentrations (MIC) were determined following the Clinical and Laboratory Standards Institute (CLSI) recommendations. Antibacterial and antifungal activity tests were performed using the microdilution method. For initial screening, peptides were tested against C. albicans ATCC18804, E. coli ATCC25922, and S. aureus ATCC25923. Briefly, bacterial cells in MH broth (80 μL aliquots containing 1.5 × 10^7 CFU) were incubated with synthetic peptides (serial dilution from 512 to 1 μM) dissolved in Milli-Q water. After incubation for 24 h at 37 °C, the microtiter plates were analyzed visually by addition of resazurin. For the antifungal assays, the culture medium was RPMI 1640 buffered with L-glutamine (pH 7.2), 0.165 M morpholinepropanesulfonic acid (MOPS), and 2% glucose. Cell suspensions (final concentration of 1 × 10^3–2.5 × 10^3 CFU/mL) were inoculated on a microdilution plate previously prepared with serially diluted synthetic peptides (128–1 μM). The plates were incubated for 48 h at 37 °C. Each assay was performed in triplicates. Additionally, amphotericin B and fluconazole were used as the control drugs. MIC was defined as the lowest concentration of peptide at which no growth was detected.

C. albicans ATCC18804 = assay: Antifungal MIC, microdilution in RPMI 1640; assay type: cell-based, Candida albicans; conditions: C. albicans ATCC18804, RPMI 1640, 48 h, 37 °C, peptides 128-1 µM, triplicate
Method: as §1

human red blood cells = assay: Hemolysis assay; assay type: cell-based; conditions: 1% (v/v) human erythrocytes in Tris-saline pH 7.4, 1 h, 37 °C, absorbance 405 nm, triplicate
Method: Peptide hemolysis assays were performed as previously described by Castro et al.. Briefly, freshly prepared human red blood cells (RBCs) were washed three times with 0.01 M Tris-HCl (pH 7.4) containing 0.15 M NaCl (Tris-saline). A suspension of 1% (v/v) erythrocytes was made with packed RBCs resuspended in Tris-saline. Peptides were dissolved in Tris-saline at an initial concentration of […] and serially diluted in the same buffer to determine the concentration that triggered 50% hemolysis (HC50). As the positive control (100% lysis), 1% (v/v) Triton X-100 solution was used. After 1 h of incubation at 37 °C, the samples were centrifuged at 3000× g for 5 min. Then, 100 µL aliquots of the supernatant were transferred to 96-well microplates, and the absorbance was determined at 405 nm. The assay was performed in triplicates.

S. aureus ATCC25923 [1] = assay: MIC, microdilution in MH broth (initial screening); assay type: cell-based, Staphylococcus aureus; conditions: 24 h, 37 °C, resazurin, triplicate
Method: as §1

E. coli ATCC35218 = assay type: cell-based, Escherichia coli
Method: (§2) After confirming antibacterial activity, the peptides were tested against gram-positive and gram-negative multidrug-resistant bacteria, including strains of clinical origin. The peptides, p-BthTX-I, des-Lys^12/(p-BthTX-I)2, and Lys^13-(p-BthTX-I)2 were serially diluted (512–1 μM) in cation-adjusted BBL MH II broth (CAMHB; Becton, Dickson and Co., Sparks, MD, USA) as described by CLSI. Bacteria at 5.0 × 10^5 CFU/mL were added to the media and incubated for 24 h at 37 °C. […] Assays were performed in duplicates, and sterile broth was used as the negative control. To determine the minimal bactericidal concentration (MBC), 100 µL from each well of the MIC assay plates that inhibited bacterial growth were sub-cultured onto MH agar (MHA) plates. […] If the ratio of MBC/MIC was >4, the activity of the peptide was considered bacteriostatic, as described previously.

E. coli CA4 = assay type: cell-based, Escherichia coli; conditions: E. coli CA4 (commensal), CAMHB, 24 h, 37 °C, duplicate
Method: as §2

Serum stability assay = assay type: in vitro ADME; conditions: 25% human male serum, 37 °C, peptide 100 µM, analytical HPLC (C18) and LC/MS, duplicate
Method: Crude peptides were purified by semi-preparative HPLC on a Shimadzu system (Tokyo, Japan) using a C18 reversed phase column (10 × 250 mm, Phenomenex, Torrance, CA, USA). Solvent A contained 0.045% trifluoroacetic acid (TFA) in water. Elution was achieved using a linear gradient (5–35%) of solvent B (0.036% TFA in acetonitrile) for 120 min at 5 mL/min. The purity of the peptides was determined by analytical HPLC on a Shimadzu system using a C18 column (4.6 × 150 mm, Phenomenex, Torrance, CA, USA) with a linear gradient of solvent B (5–95%) for 30 min at 1 mL/min. Liquid chromatography-mass spectrometry (LC/MS) was performed using a C18 column (2.0 × 30 mm, Shimadzu) attached to analytical HPLC and an amaZon ion trap mass spectrometer (Bruker Daltonics) using ESI. Peptides were eluted using a linear gradient of solvent B (5–95%) for 15 min at 0.2 mL/min.
Peptide stability assays were performed in diluted serum as previously described with minor modifications. First, 2 mL of 25% human male serum was centrifuged at 3000× g for 10 min; the supernatant was collected and incubated for 15 min at 37 °C. Next, peptides were added to the serum to a final concentration of 100 µM. Then, 200 µL of samples were collected at different time points during the assays, which were performed in duplicate. Analyses were performed by LC/MS and analytical HPLC, as described above.

E. faecium HSJRP8 = assay type: cell-based, Enterococcus faecium
Method: as §2

E. faecium VRE16 = assay type: cell-based, Enterococcus faecium
Method: as §2

S. epidermidis ATCC35984 = assay type: cell-based, Staphylococcus epidermidis
Method: as §2

[2] = tested on: K. pneumoniae ATCCBAA1705; assay type: cell-based, Klebsiella pneumoniae; conditions: K. pneumoniae ATCCBAA1705 (KPC), CAMHB, 24 h, 37 °C, duplicate
Method: as §2

K. pneumoniae NDM-1 = assay type: cell-based, Klebsiella pneumoniae; conditions: K. pneumoniae NDM-1, sub-culture on MH agar, 99.9% death
Method: as §2

K. pneumoniae ATCC700603 = assay type: cell-based, Klebsiella pneumoniae; conditions: K. pneumoniae ATCC700603 (SHV-18), CAMHB, 24 h, 37 °C
Method: as §2

S. aureus ATCC25923 [3] = assay type: cell-based, Staphylococcus aureus; conditions: S. aureus ATCC25923, CAMHB, 24 h, 37 °C, duplicate
Method: as §2

S. aureus SA88 = assay type: cell-based, Staphylococcus aureus
Method: as §2

S. aureus SA90 = assay type: cell-based, Staphylococcus aureus; conditions: S. aureus SA90, sub-culture on MH agar, 99.9% death
Method: as §2

S. aureus SA16 = assay type: cell-based, Staphylococcus aureus; conditions: S. aureus SA16 (MRSA)
Method: as §2

S. aureus SA33 = assay type: cell-based, Staphylococcus aureus; conditions: S. aureus SA33, sub-culture on MH agar, 99.9% death
Method: as §2

25% human male serum = conditions: 37 °C, up to 30 h

CC(C)C[C@H](NC(=O)[C@H](Cc1c[nH]cn1)NC(=O)[C@H](Cc1ccc(O)cc1)NC(=O)[C@H](CCCNC(=N)N)NC(=O)[C@H](Cc1ccc(O)cc1)NC(=O)[C@H](CCCCN)NC(=O)[C@@H](N)CCCCN)C(=O)N[C@@H](CCCCN)C(=O)N1CCC[C@H]1C(=O)N[C@@H](Cc1ccccc1)C(=O)N[C@@H](CSSC[C@H](NC(=O)[C@H](Cc1ccccc1)NC(=O)[C@@H]1CCCN1C(=O)[C@H](CCCCN)NC(=O)[C@H](CC(C)C)NC(=O)[C@H](Cc1c[nH]cn1)NC(=O)[C@H](Cc1ccc(O)cc1)NC(=O)[C@H](CCCNC(=N)N)NC(=O)[C@H](Cc1ccc(O)cc1)NC(=O)[C@H](CCCCN)NC(=O)[C@@H](N)CCCCN)C(=O)N[C@@H](CCCCN)C(=O)O)C(=O)N[C@@H](CCCCN)C(=O)O [des-Lys^13-(p-BthTX-I)2]
MIC (E. coli ATCC25922): 32 µM (≈ 103 µg/mL) | MIC (C. albicans ATCC18804): >128 µM | HC50 (peptide concentration that produced 50% hemolysis) (human red blood cells): >128 µM | MIC (S. aureus ATCC25923 [1]): 128 µM (≈ 412 µg/mL)

CC(C)C[C@H](NC(=O)[C@H](Cc1c[nH]cn1)NC(=O)[C@H](Cc1ccc(O)cc1)NC(=O)[C@H](CCCNC(=N)N)NC(=O)[C@H](Cc1ccc(O)cc1)NC(=O)[C@H](CCCCN)NC(=O)[C@@H](N)CCCCN)C(=O)N[C@@H](CCCCN)C(=O)N1CCC[C@H]1C(=O)N[C@@H](Cc1ccccc1)C(=O)N[C@@H](CS)C(=O)N[C@@H](CCCCN)C(=O)N[C@@H](CCCCN)C(=O)O [p-BthTX-I]
MIC (E. coli ATCC35218; E. coli ATCC35218, CAMHB, 24 h, 37 °C, duplicate): 512 µM (≈ 890 µg/mL) | MBC (E. coli ATCC35218; E. coli ATCC35218, sub-culture on MH agar, 99.9% death): >512 µM | MIC (E. coli CA4): >512 µM | Incubation time after which the peptide was completely degraded in human serum (Serum stability assay): 30 min | MIC (E. faecium HSJRP8; E. faecium HSJRP8 (daptomycin resistant), CAMHB, 24 h, 37 °C, duplicate): 32 µM (≈ 55.7 µg/mL) | MBC (E. faecium HSJRP8; E. faecium HSJRP8, sub-culture on MH agar, 99.9% death): >512 µM | MIC (E. faecium VRE16; E. faecium VRE16 (vancomycin resistant), CAMHB, 24 h, 37 °C, duplicate): 128 µM (≈ 223 µg/mL) | MBC (E. faecium VRE16; E. faecium VRE16, sub-culture on MH agar, 99.9% death): >512 µM | MIC (S. epidermidis ATCC35984; S. epidermidis ATCC35984, CAMHB, 24 h, 37 °C, duplicate): 128 µM (≈ 223 µg/mL) | MBC (S. epidermidis ATCC35984; S. epidermidis ATCC35984, sub-culture on MH agar, 99.9% death): 512 µM (≈ 890 µg/mL) | MIC [2]: >512 µM | MBC (K. pneumoniae NDM-1): >512 µM | MIC (K. pneumoniae ATCC700603): >512 µM | MIC (S. aureus ATCC25923 [3]): >512 µM | MIC (S. aureus SA88; S. aureus SA88 (MRSA, daptomycin heteroresistant), CAMHB, 24 h, 37 °C, duplicate): 512 µM (≈ 890 µg/mL) | MBC (S. aureus SA88; S. aureus SA88, sub-culture on MH agar, 99.9% death): >512 µM | MBC (S. aureus SA90): 512 µM (≈ 890 µg/mL) | MIC (S. aureus SA16; CAMHB, 24 h, 37 °C): 512 µM (≈ 890 µg/mL) | MBC (S. aureus SA16; sub-culture on MH agar, 99.9% death): 512 µM (≈ 890 µg/mL) | MBC (S. aureus SA33): >512 µM

KKYRYHLKPFCKK [(p-BthTX-I)2]
cleaved bond (25% human male serum): Lys12-Lys13, major, 30 min; also recorded: Cys11-Lys12, major, 30 min | fragment found (25% human male serum): (p-BthTX-I)2 minus one Lys residue, first_seen, 5 min; also recorded: (p-BthTX-I)2 minus two Lys residues, major, 5 min; also recorded: (p-BthTX-I)2 minus three Lys residues, 20 min
